Results: patent US6051582A, “Compounds useful for inhibition of farnesyl protein transferase” (Schering Corporation, priority 1998, dated 2000)

What was measured:
[1] = molecular target: farnesyl protein transferase (Homo sapiens, UniProt P49354+P49356); test: FPT inhibition, in vitro enzyme assay; type: biochemical
Method: (§1) FPT IC50 (inhibition of farnesyl protein transferase, in vitro enzyme assay) and COS Cell IC50 (Cell-Based Assay) were determined following the assay procedures described in WO 95/10516, published Apr. 20, 1995. GGPT IC50 (inhibition of geranylgeranyl protein transferase, in vitro enzyme assay), Cell Mat Assay, and anti-tumor activity (in vivo anti-tumor studies) could be determined by the assay procedures described in WO 95/10516. The disclosure of WO 95/10516 is incorporated herein by reference thereto.

COS Cell = test: COS Cell-Based Assay
Method: as §1

Sequence of farnesyl protein transferase (P49356 whole entry, one chain of several): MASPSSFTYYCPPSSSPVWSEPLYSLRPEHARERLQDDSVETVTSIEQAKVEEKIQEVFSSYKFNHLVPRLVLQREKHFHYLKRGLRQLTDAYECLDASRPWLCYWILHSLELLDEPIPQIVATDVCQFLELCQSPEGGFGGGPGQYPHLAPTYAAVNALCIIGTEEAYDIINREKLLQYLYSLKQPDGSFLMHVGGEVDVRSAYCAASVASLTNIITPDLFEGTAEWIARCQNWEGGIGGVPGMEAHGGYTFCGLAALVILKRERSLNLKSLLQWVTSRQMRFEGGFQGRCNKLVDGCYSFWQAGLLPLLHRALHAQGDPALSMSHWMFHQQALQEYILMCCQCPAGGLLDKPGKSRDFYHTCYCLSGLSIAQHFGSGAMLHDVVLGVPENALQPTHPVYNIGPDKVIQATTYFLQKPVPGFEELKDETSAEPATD

With `CC1(CC(=O)N2CCC([C@H]3c4ncc(Br)cc4CCc4cc(Cl)cc(Br)c43)CC2)CCN(S(C)(=O)=O)CC1` [Example 1] the IC50 [1] was 19 nM and the IC50 (COS Cell) was 22 nM.
